Data set [1] in a line: PAMPA (parallel artificial membrane permeability assay). The note with it: PAMPA. Format: in vitro ADME. The essentials:
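Artificial membrane was 10% (w/v) egg lecithin plus 0.5% (w/v) cholesterol in dodecane on a PVDF filter. A 10 mM DMSO stock was added at 0.5% (v/v) to donor buffer (50 mM MOPSO, pH 6.5, 5.0% glycocholic acid). After 18 h at 37 °C, LC/MS or LC/UV gave donor and acceptor levels for Pe.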

Data set [2] can be described thus: Metabolic stability in human hepatic microsome. It counts as in vitro ADME. To be noted: microsomes.
[3] abbreviates: membrane permeation rate (Pe), 50 mM MOPSO buffer pH 6.5 with 5.0% glycocholic acid, 37° C., 18 hours, read-out: iPAMPA Pe.
The mark [4] stands for this setting: pH 7.4, human hepatic microsome, NADPH(+), read-out: CL NADPH(+).

These results are taken from US9409952B2, “Peptide-compound cyclization method” (Chugai Seiyaku Kabushiki Kaisha, priority 2011, dated 2016).

Molecules are shown by their SMILES. Like-named read-outs stand apart in the source and are kept apart here. Starred links: 1 amine or outer side, 2 acyl side, 3 side chain; linkers in the order of their positions; H or OH if unused. Positions of bridges follow the written chain, without caps; N, C: chain ends. Non-standard residues stand in square brackets, D forms with d. Residues, ends and D or L forms follow the SMILES beside them. *: point of attachment. NMePhe(3-Cl) = CN[C@@H](Cc1cccc(Cl)c1)C(=O)O; NMeF = CN[C@@H](Cc1ccccc1)C(=O)O; NMeI = CC[C@H](C)[C@H](NC)C(=O)O; NMeβAla = CN(CCC(=O)[*:2])[*:1]; NMeL = CN[C@@H](CC(C)C)C(=O)O; NMeV = CN[C@H](C(=O)O)C(C)C; NMeA = CN[C@@H](C)C(=O)O; Piperidide = C1CCN(*)CC1; dNMeA = CN[C@H](C)C(=O)O; β3hA = C[C@H](N)CC(=O)O; Sar = CNCC(=O)O; tBu = CC(C)(C)*

Turning to `CC[C@H](C)[C@H]1C(=O)N[C@@H](COC(C)(C)C)C(=O)N[C@@H](C)CC(=O)N(C)[C@@H](C)C(=O)N(C)[C@@H](CC(C)C)C(=O)N(C)CC(=O)N(C)[C@@H](CC(C)C)C(=O)N[C@@H]([C@@H](C)O)C(=O)N(C)[C@@H](C)C(=O)N(C)[C@@H](CC(C)C)C(=O)N1C` [DP-804] (cyclo([NMeA][NMeL][NMeI]S(tBu)[β3hA][NMeA][NMeL][Sar][NMeL]T)), in data set [1] (setting [3]), the Papp at 18 hours, 50 µM stood at 29 ×10⁻⁶ cm/s. For the same molecule, the microsomal CLint at 1 uM in data set [2] (setting [4]) stood at 40 µL/min/mg.
The matching figures for `CC[C@H](C)[C@H]1C(=O)N[C@@H](C)CC(=O)N(C)[C@H](C)C(=O)N(C)[C@@H](Cc2ccccc2)C(=O)N(C)[C@@H](CC(C)C)C(=O)N[C@@H]([C@@H](C)O)C(=O)N(C)CC(=O)N[C@@H](COC(C)(C)C)C(=O)N(C)[C@@H](CC(C)C)C(=O)N1C` [DP-789] (cyclo([NMeF][NMeL]T[Sar]S(tBu)[NMeL][NMeI][β3hA][dNMeA])): 35 ×10⁻⁶ cm/s and 113 µL/min/mg.
For `CC[C@H](C)[C@H](NC(=O)[C@H](C)N(C)C(=O)[C@@H]1CCCN1C(=O)[C@@H](NC(=O)[C@@H]1CC(=O)N(C)[C@H](C)C(=O)N(C)[C@@H](CC(C)C)C(=O)N(C)[C@@H](Cc2ccccc2)C(=O)N[C@@H](CC(C)C)C(=O)N(C)[C@@H](Cc2cccc(Cl)c2)C(=O)N[C@@H]([C@@H](C)O)C(=O)N(C)[C@@H](Cc2ccccc2)C(=O)N[C@@H](CC(C)C)C(=O)N1)[C@@H](C)CC)C(=O)N1CCCCC1` [DP-942] ([dNMeA][NMeL][NMeF]L[NMePhe(3-Cl)]T[NMeF]LDIP[NMeA]I-Piperidide; lactam N-9) the same measures were 0.1 ×10⁻⁶ cm/s and 23 µL/min/mg.
For `CC[C@H](C)[C@@H]1NC(=O)[C@H](CC(C)C)N(C)C(=O)[C@H](C)NC(=O)CN(C)C(=O)[C@H](Cc2ccccc2)NC(=O)[C@H]([C@@H](C)O)NC(=O)[C@H](CC(C)C)N(C)C(=O)CCN(C)C(=O)C[C@@H](C(=O)N2CCCCC2)NC(=O)[C@H](CC(C)C)N(C)C(=O)[C@H](CC(C)C)N(C)C1=O` [DP-413] ([NMeβAla][NMeL]TF[Sar]A[NMeL]I[NMeL][NMeL]D-Piperidide; lactam N-11) the same measures were 29 ×10⁻⁶ cm/s and 68 µL/min/mg.
`CC[C@H](C)[C@H]1C(=O)N(C)[C@@H](CC(C)C)C(=O)N[C@@H](Cc2ccccc2)C(=O)N[C@@H]([C@@H](C)O)C(=O)N[C@@H](CC(C)C)C(=O)N(C)[C@@H](Cc2ccccc2)C(=O)N(C)[C@@H](C(C)C)C(=O)N[C@H](C(=O)N2CCC[C@H]2C(=O)N[C@H](C(=O)N[C@@H](C)C(=O)N2CCCCC2)C(C)C)CC(=O)N[C@H](C)C(=O)N[C@@H](C)C(=O)N1C` [DP-671] ([dA]A[NMeI][NMeL]FTL[NMeF][NMeV]DPVA-Piperidide; lactam N-10): in data set [1] (setting [3]), the Papp at 18 hours, 50 µM amounted to 16 ×10⁻⁶ cm/s. Further, the microsomal CLint at 1 uM in data set [2] (setting [4]) was determined as 39 µL/min/mg.
In the case of `CC(C)C[C@@H]1NC(=O)[C@H]([C@@H](C)O)NC(=O)[C@H](CC(C)C)N(C)C(=O)CN(C)C(=O)[C@H](Cc2ccccc2)N(C)C(=O)[C@H](CC(C)C)NC(=O)C[C@@H](C(=O)N2CCCCC2)NC1=O` [DP-723] (L[NMeF][Sar][NMeL]TLD-Piperidide; lactam N-7), in data set [1] (setting [3]), the Papp at 18 hours, 50 µM worked out at 26 ×10⁻⁶ cm/s. Moreover, the microsomal CLint at 1 uM in data set [2] (setting [4]) turned out to be 154 µL/min/mg.
In turn, `CC[C@H](C)[C@H]1C(=O)N(C)[C@@H](CC(C)C)C(=O)N[C@@H](C)C(=O)N(C)[C@@H](CC(C)C)C(=O)N(C)[C@@H](Cc2ccccc2)C(=O)N[C@@H]([C@@H](C)O)C(=O)N(C)[C@@H](Cc2ccccc2)C(=O)N(C)[C@@H](CC(C)C)C(=O)N(C)[C@@H](C)C(=O)N[C@@H](C)CC(=O)N[C@H](C(C)C)C(=O)N1C` [DP-773] (cyclo(A[NMeL][NMeF]T[NMeF][NMeL][NMeA][β3hA][dV][NMeI][NMeL])) had a Papp at 18 hours, 50 µM in data set [1] (pH 6.5) of 46 ×10⁻⁶ cm/s. The microsomal CLint at 1 uM in data set [2] (human, pH 7.4, CL NADPH(+)) was found to be 17 µL/min/mg.
